Assay [1] can be described thus: Percent reduction of ADP (4 uM) induced platelet aggregation was determined at 0.5 mM concentration. Type of assay: functional, Homo sapiens.
Assay [2] in a line: Percent reduction of collagen (1 ug/mL) induced platelet aggregation was determined at 0.5 mM concentration. Type of assay: functional, Homo sapiens.
The nature of assay [3]: Percent reduction of thrombin receptor activating peptide (12 uM) induced platelet aggregation was determined at 0.5 mM concentration. Type of assay: functional, Homo sapiens.
Assay [4] in a line: Percent reduction of collagen (5 ug/mL) induced platelet aggregation was determined at 0.5 mM concentration. Type of assay: functional, Homo sapiens.
The nature of assay [5]: Percent reduction of thrombin receptor activating peptide (12 uM) induced platelet aggregation was determined at 0.25 mM concentration. Type of assay: functional, Homo sapiens.
The nature of assay [6]: Percent reduction of collagen (5 ug/mL) induced platelet aggregation was determined at 0.25 mM concentration. In kind it is functional, Homo sapiens.
Assay [7] is described as follows: Percent reduction of collagen (1 ug/mL) induced platelet aggregation was determined at 0.25 mM concentration. In kind it is functional, Homo sapiens.
Assay [8] has as its system Rattus norvegicus. As to the kind of experiment: Percent reduction in infarct size after bolus injection at 0.07 mol/kg dose. Type of assay: functional.
Assay [9] concerns Rattus norvegicus. Put plainly: Percent reduction in infarct volume after treatment at 40.0 mg/kg dose. In kind it is functional.
For assay [10], the system named is Rattus norvegicus. As to the kind of experiment: Percent reduction in infarct volume after treatment at 20.0 mg/kg dose. Type of assay: functional.
The subject of assay [11] is Rattus norvegicus. As to the kind of experiment: Percent reduction in infarct volume after treatment at 10.0 mg/kg dose. In kind it is functional.
The nature of assay [12]: Percent reduction of ADP (4 uM) induced platelet aggregation was determined at 0.25 mM concentration. Type of assay: functional, Homo sapiens.
The test system of assay [13] is Rattus norvegicus. Put plainly: Percent reduction in infarct volume after treatment at 0.0 mg/kg dose. Type of assay: functional.
The test system of assay [14] is Rattus norvegicus. As to the kind of experiment: Percent reduction in infarct size after bolus injection at 0.1 mol/kg dose. Type of assay: functional.

The values that follow come from ChEMBL document CHEMBL1137850, “Pyridoxine as a template for the design of antiplatelet agents” (2004).

“And” between values parts separate entries of the source, which are not always exact repeats. Identical values can stand only once.

With `Cc1ncc(CNC(=O)Nc2ccc(F)cc2)c(CO)c1O`, the Reduction in assay [1] amounted to 0%; in assay [2], 0%; in assay [3], 0%; in [4] it was 1%.
Regarding `Cc1ncc(Cn2ccnc2C)c(CO)c1O`, the Reduction in assay [1] is listed as 1%; in assay [2] it was 0%; in assay [3], 3%; in [4], 1%.
As to `Cc1ncc(Cn2cnnn2)c(CO)c1O`, the Reduction in assay [1] came out at 4%; in [2], 6%; in assay [3], 7%; in assay [4], 0%.
For `Cc1ncc(Cn2nnc(N)n2)c(CO)c1O`, the Reduction in [1] was 0%; in assay [2], 1%; in [3], 2%; in assay [4] it was 0%.
Turning to `Cc1ncc(C/N=C(\S)Nc2ccc(F)cc2)c(CO)c1O`, the Reduction was determined as 18% in assay [1], 23% in assay [2], 6% in assay [3] and 4% in assay [4].
The corresponding values for `Cc1ncc(CO)c(CO)c1O` [PYRIDOXINE] are 0%, 4%, 0% and 4%.
For the compound `Cc1ncc(CNc2ccc(-c3ccc(C(=N)N)cc3)cc2)c(CO)c1O`, the Reduction is 82% and 66% in assay [1]; 93% in assay [5]; 1% in [6]; 41% in assay [7]; 30% with Rattus norvegicus [8]; 2.9% with Rattus norvegicus [9]. The Reduction in assay [2] was determined as 93%; with Rattus norvegicus [10] it was 26.5%; with Rattus norvegicus [11] it was 30.5%; in assay [12] it was 63%; in assay [4], 30%; in the assay with Rattus norvegicus [13], 40%.
Turning to `Cc1ncc(CNc2ccc(C(=N)N)cc2)c(CO)c1O`, the Reduction in [1] is 79%; in [2] it was 10%; in [3], 88%; in assay [4] it was 24%.
For `Cc1ncc(COP(=O)(O)O)c(C=O)c1O` [PYRIDOXAL PHOSPHATE ANHYDROUS], the Reduction in assay [1] was found to be 0%; in the assay with Rattus norvegicus [14] it was 31%; in assay [2], 0%; in assay [3], 0%; in assay [4], 0%.
